Consider two compounds from patent publication US20250250608A1, “METHODS AND COMPOSITIONS FOR ASSAYING BETA-HEXOSAMINIDASE ENZYMATIC ACTIVITY VIA MASS SPECTROMETRY” (GelbChem, LLC, priority 2024, published 2025).

The structures appear in SMILES notation.

Data set [1] can be described thus: Substrate stability over incubation in sodium formate buffer. Format: physicochemical. The conditions noted are these: 24 hour incubation at 37° C. in sodium formate buffer; read-out: recovery of the substrates (stability).
Another data set relates to HexA/B. The experiment in a line: Enzyme kinetics of HexA/B with the HexA/B substrate, endogenous enzymes from healthy adult dried blood spots, LC-MS/MS detection. Type of data set: biochemical. The conditions noted are these: read-out: Michaelis-Menten constant (Km). The protocol:
3.2 mm punches were taken from dried blood samples. The punches were added into a well of a multiwell plate and in particular, a 1.0 mL deep-well 96-well plate. Following, 30 μL of the duplex assay cocktail described above was added to each well. The plate was sealed with a silicone sealing mat and shaken at 250 rpm for 4 hours at 37° C. in an orbital shaker incubator. After incubation, the enzymatic reaction was quenched by adding 100 μL of methanol: ethyl acetate (1:1) and mixed by pipetting up and down ˜10 times. Analytes were extracted by adding sodium chloride solution (0.5 M, 200 μL) and ethyl acetate (400 μL) to each well and mixed by pipetting up and down ˜10 times. […]
(§1) Analytes were detected via a WATERS™ Xevo TQ triple-quadrupole mass spectrometer. […] The following MRM traces were monitored for quantitation: HexA enzymatic reaction product (456.5>356.1), HexA/B enzymatic reaction product (461.5>361.2), and internal standard (465.5>357.1). […]
Enzyme kinetics of HexA and HexA/B were measured in relationship to the HexA substrate and HexA/B substrate, respectively, using endogenous enzymes from healthy adult dried blood spots. […]
The reaction rate for each substrate at different substrate concentrations was measured and the relationship found to be hyperbolic.

Data set [2] concerns the target T1, HexA (Homo sapiens, UniProt P06865).
T1 construct: using endogenous enzymes from healthy adult dried blood spots; from tissue; host or cells: dried blood spots from healthy adults/individuals (3.2 mm punches)
T1 sequence (P06865 89-529): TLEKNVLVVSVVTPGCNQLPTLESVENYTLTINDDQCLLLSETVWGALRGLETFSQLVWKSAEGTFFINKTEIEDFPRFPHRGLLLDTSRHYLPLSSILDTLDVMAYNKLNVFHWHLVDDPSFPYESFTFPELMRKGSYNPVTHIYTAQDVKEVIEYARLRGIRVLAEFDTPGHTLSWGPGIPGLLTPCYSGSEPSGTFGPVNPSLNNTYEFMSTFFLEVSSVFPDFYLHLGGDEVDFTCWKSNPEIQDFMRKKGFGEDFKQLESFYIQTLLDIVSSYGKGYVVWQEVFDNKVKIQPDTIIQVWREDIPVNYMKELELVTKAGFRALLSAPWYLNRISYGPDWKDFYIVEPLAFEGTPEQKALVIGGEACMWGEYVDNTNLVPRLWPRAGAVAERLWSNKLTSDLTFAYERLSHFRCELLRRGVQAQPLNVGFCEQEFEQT
T1 sequence (P07686 122-556 partner): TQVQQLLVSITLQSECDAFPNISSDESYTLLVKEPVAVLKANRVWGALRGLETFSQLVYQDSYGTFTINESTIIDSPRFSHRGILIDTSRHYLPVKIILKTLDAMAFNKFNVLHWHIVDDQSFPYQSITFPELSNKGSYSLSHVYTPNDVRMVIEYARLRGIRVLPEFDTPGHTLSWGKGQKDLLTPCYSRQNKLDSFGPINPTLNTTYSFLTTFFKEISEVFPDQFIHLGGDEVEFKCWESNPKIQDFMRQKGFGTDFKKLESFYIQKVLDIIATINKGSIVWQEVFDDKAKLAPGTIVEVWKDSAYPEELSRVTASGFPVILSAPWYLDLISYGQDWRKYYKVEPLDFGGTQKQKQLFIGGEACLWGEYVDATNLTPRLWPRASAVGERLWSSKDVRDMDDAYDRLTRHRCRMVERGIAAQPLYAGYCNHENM
The experiment in a line: Competitive inhibition: HexA activity with the HexA substrate in presence and absence of the HexA/B substrate, dried blood spots from healthy individuals. The conditions noted are these: HexA substrate in presence vs absence of HexA/B substrate. Type of data set: biochemical. The protocol: The HexA/B substrate binds to both HexA and HexB, whereas the HexA substrate binds to only the HexA; thus, the HexA/B substrate may theoretically block the action of HexA on the HexA substrate by competitive binding (i.e. competitive inhibition). An experiment was done to test this theory where HexA enzymatic activity was measured in dried blood spots from healthy individuals using the HexA substrate in the presence and absence of the HexA/B substrate.

Data set [3] addresses T1, HexA. Nature of the data set: Analytical range of duplex assay, HexA activity. Type of data set: biochemical. The note with it: dried blood spots. The procedure: 3.2 mm punches were taken from dried blood samples. The punches were added into a well of a multiwell plate and in particular, a 1.0 mL deep-well 96-well plate. Following, 30 μL of the duplex assay cocktail described above was added to each well. The plate was sealed with a silicone sealing mat and shaken at 250 rpm for 4 hours at 37° C. in an orbital shaker incubator. After incubation, the enzymatic reaction was quenched by adding 100 μL of methanol: ethyl acetate (1:1) and mixed by pipetting up and down ˜10 times. Analytes were extracted by adding sodium chloride solution (0.5 M, 200 μL) and ethyl acetate (400 μL) to each well and mixed by pipetting up and down ˜10 times. The plate was centrifuged at 3000×g for 5 min at ambient temperature, then 200 μL of the upper ethyl acetate layer was transferred to a 96-well microplate. […]
as §1
The analytical range, as calculated by dividing the enzymatic activity in healthy individual samples over the enzymatic activity in a blank, was determined to be 82 for the HexA substrate and 3,400 for the HexA/B substrate.

For orientation: Km means the concentration of substrate that gives half-maximal velocity. For `[2H]c1c([2H])c([2H])c(C(=O)NCCCCN(CCC(=O)Nc2ccc(OC3OC(CO)C(O)C(O)C3NC(C)=O)cc2)C(=O)OC(C)(C)C)c([2H])c1[2H]` (centres unmarked) [HexA/B substrate], the recovery at 24 h in data set [1] was over 100%. Besides, in the data set with HexA/B, the Km was 3.06 mM. Also, the “competitive inhibition of HexA enzymatic activity on the HexA substrate” value at HexA [2] was “no competitive inhibition”.

Consider `CC(=O)NC1C(Oc2ccc(NC(=O)CCN(CCCCNC(=O)c3ccccc3)C(=O)OC(C)(C)C)cc2)OC(COS(=O)(=O)O)C(O)C1O` (centres unmarked) [HexA substrate], for which the “analytical range (enzymatic activity in healthy individual samples over enzymatic activity in a blank)” value at HexA [3] is recorded as 82. Moreover, in data set [1], the recovery at 24 h was over 100%.
